Measured values reported in ChEMBL document CHEMBL1141493, “Synthesis and structure-activity relationships of heteroaryl substituted-3,4-diamino-3-cyclobut-3-ene-1,2-dione CXCR2/CXCR1 receptor antagonists” (Bioorg Med Chem Lett, 2008).
The source made the active and inactive calls. The calls are words filed in the database; no cut-off is given here.

Assays:
[1] = biological target: T1, C-X-C chemokine receptor type 2 (Homo sapiens, UniProt P25025); assay: Inhibition of CXCR2
T1 sequence (P25025 whole entry): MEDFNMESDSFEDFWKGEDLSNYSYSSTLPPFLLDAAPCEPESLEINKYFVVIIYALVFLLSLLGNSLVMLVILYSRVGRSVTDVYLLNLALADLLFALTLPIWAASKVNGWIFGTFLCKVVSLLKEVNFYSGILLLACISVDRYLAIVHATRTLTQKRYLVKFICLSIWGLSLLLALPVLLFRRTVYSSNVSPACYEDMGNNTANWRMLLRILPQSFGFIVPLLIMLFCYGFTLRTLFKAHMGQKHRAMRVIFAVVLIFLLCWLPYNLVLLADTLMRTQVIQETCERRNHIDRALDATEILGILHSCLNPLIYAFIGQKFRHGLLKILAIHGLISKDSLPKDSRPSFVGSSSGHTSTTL

[2] = biological target: T2, C-X-C chemokine receptor type 1 (Homo sapiens, UniProt P25024); assay: Inhibition of CXCR1
T2 sequence (P25024 whole entry): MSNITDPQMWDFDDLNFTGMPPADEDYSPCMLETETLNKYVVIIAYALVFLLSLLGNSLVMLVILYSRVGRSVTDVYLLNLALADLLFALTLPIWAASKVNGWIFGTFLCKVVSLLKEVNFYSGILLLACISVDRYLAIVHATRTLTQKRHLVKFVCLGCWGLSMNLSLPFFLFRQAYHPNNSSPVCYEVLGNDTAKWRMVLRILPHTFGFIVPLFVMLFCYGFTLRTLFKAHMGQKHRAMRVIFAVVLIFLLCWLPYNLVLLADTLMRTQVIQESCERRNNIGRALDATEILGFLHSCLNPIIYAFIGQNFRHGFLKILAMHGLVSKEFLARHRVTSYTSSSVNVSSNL

[3] = AUC in rat at 10 mg/kg, po; format: ADME, organism-based; set-up: dose 10 mg/kg, route oral; conditions: plasma
[4] = biological target: T3, C-X-C chemokine receptor type 1 (Homo sapiens) (UniProt P25024); assay: Inhibition of CXCR1 at >10000 nM
T3 sequence (whole entry): T2 sequence (P25024 whole entry)

[5] = biological target: T3, C-X-C chemokine receptor type 1 (Homo sapiens); assay: Inhibition of CXCR1-mediated chemotaxis in Ba/F3 cells expressing human CXCR1 at >10000 nM; format: cell-based; conditions: BaF3

Structure (SMILES) | IC50 [1] | IC50 [2] | AUC [3] | Activity [4] | Activity [5]
CCC(Nc1c(Nc2cccc(C(=O)N(C)C)c2O)c(=O)c1=O)c1cc(Cl)co1 (stereo not given) | 4.5 nM | 100 nM |  |  | 
CCC(Nc1c(Nc2cccc(C(=O)N(C)C)c2O)c(=O)c1=O)c1ccno1 (stereo not given) | 9.8 nM | 302 nM |  |  | 
CCC(Nc1c(Nc2cccc(C(=O)N(C)C)c2O)c(=O)c1=O)c1cccs1 (stereo not given) | 6.2 nM | 179 nM |  |  | 
CC[C@@H](Nc1c(Nc2cccc(C(=O)N(C)C)c2O)c(=O)c1=O)c1cc(Br)co1 | 3.5 nM | 55 nM | 33.4 µM·h |  | 
CCC(Nc1c(Nc2cccc(C(=O)N(C)C)c2O)c(=O)c1=O)c1ccc(-c2ccccc2Cl)o1 (stereo not given) | 49 nM | 4870 nM |  |  | 
CCC(Nc1c(Nc2cccc(C(=O)N(C)C)c2O)c(=O)c1=O)c1ccncc1 (stereo not given) | 50 nM | 2860 nM |  |  | 
CCC(Nc1c(Nc2cccc(C(=O)N(C)C)c2O)c(=O)c1=O)c1nccs1 (stereo not given) | 9.8 nM | 703 nM |  |  | 
CCC(Nc1c(Nc2cccc(C(=O)N(C)C)c2O)c(=O)c1=O)c1cc(-c2c(C)noc2C)co1 (stereo not given) | 7.6 nM | 345 nM |  |  | 
CCC(Nc1c(Nc2cccc(C(=O)N(C)C)c2O)c(=O)c1=O)c1ccc(Cl)s1 (stereo not given) | 6.2 nM | 1110 nM |  |  | 
CCC(Nc1c(Nc2cccc(C(=O)N(C)C)c2O)c(=O)c1=O)c1cccn1C (stereo not given) | 815 nM |  |  | inactive | 
CCC(Nc1c(Nc2cccc(C(=O)N(C)C)c2O)c(=O)c1=O)c1ccc(CO)o1 (stereo not given) | 2.8 nM | 182 nM |  |  | 
CCC(Nc1c(Nc2cccc(C(=O)N(C)C)c2O)c(=O)c1=O)c1ncco1 (stereo not given) | 8.6 nM | 795 nM |  |  | 
CC[C@@H](Nc1c(Nc2cccc(C(=O)N(C)C)c2O)c(=O)c1=O)c1cc(C)on1 | 6.3 nM | 171 nM | 3.7 µM·h |  | inactive
CC[C@@H](Nc1c(Nc2cccc(C(=O)N(C)C)c2O)c(=O)c1=O)c1ccc(Cl)o1 | 4.6 nM | 244 nM |  |  | 
CCC(Nc1c(Nc2cccc(C(=O)N(C)C)c2O)c(=O)c1=O)c1occc1Br (stereo not given) | 16.5 nM | 1020 nM |  |  | 
CCC(Nc1c(Nc2cccc(C(=O)N(C)C)c2O)c(=O)c1=O)c1cocn1 (stereo not given) | 10.9 nM | 805 nM |  |  | 
CCC(Nc1c(Nc2cccc(C(=O)N(C)C)c2O)c(=O)c1=O)c1ccc(Cl)o1 (stereo not given) | 4.8 nM | 275 nM |  |  | 
CCC(Nc1c(Nc2cccc(C(=O)N(C)C)c2O)c(=O)c1=O)c1ccc(-c2cccc(C(F)(F)F)c2)o1 (stereo not given) | 87 nM | 3430 nM |  |  | 
CCC(Nc1c(Nc2cccc(C(=O)N(C)C)c2O)c(=O)c1=O)c1cc(-c2ccncc2)co1 (stereo not given) | 9.5 nM | 526 nM |  |  | 
CCC(Nc1c(Nc2cccc(C(=O)N(C)C)c2O)c(=O)c1=O)c1cc(-c2ccccc2)co1 (stereo not given) | 6.1 nM | 150 nM |  |  | 
CCC(Nc1c(Nc2cccc(C(=O)N(C)C)c2O)c(=O)c1=O)c1ccoc1 (stereo not given) | 8 nM | 812 nM |  |  | 
CCC(Nc1c(Nc2cccc(C(=O)N(C)C)c2O)c(=O)c1=O)c1ccc(C(F)(F)F)o1 (stereo not given) | 17.2 nM | 6060 nM |  |  | 
CCc1ccc(C(CC)Nc2c(Nc3cccc(C(=O)N(C)C)c3O)c(=O)c2=O)o1 (stereo not given) | 4.1 nM | 854 nM |  |  | 
CC[C@@H](Nc1c(Nc2cccc(C(=O)N(C)C)c2O)c(=O)c1=O)c1ccsc1 | 3.4 nM | 104 nM |  |  | 
CCC(Nc1c(Nc2cccc(C(=O)N(C)C)c2O)c(=O)c1=O)c1nc(C)no1 (stereo not given) | 8.2 nM | 289 nM |  |  | 
CCC(Nc1c(Nc2cccc(C(=O)N(C)C)c2O)c(=O)c1=O)c1sccc1Cl (stereo not given) | 21 nM | 1370 nM |  |  | 
CCC(Nc1c(Nc2cccc(C(=O)N(C)C)c2O)c(=O)c1=O)c1cc(C)on1 (stereo not given) | 7.5 nM | 224 nM |  |  | 

Continued, values first:

IC50 [1] | IC50 [2] | AUC [3] | Activity [4] | Activity [5] | Structure (SMILES)
5.8 nM | 165 nM |  |  |  | CCC(Nc1c(Nc2cccc(C(=O)N(C)C)c2O)c(=O)c1=O)c1ccsc1 (stereo not given)
58 nM | 3380 nM |  |  |  | CCC(Nc1c(Nc2cccc(C(=O)N(C)C)c2O)c(=O)c1=O)c1ccc(-c2cccc(Cl)c2)o1 (stereo not given)
171 nM |  |  | inactive |  | CCC(Nc1c(Nc2cccc(C(=O)N(C)C)c2O)c(=O)c1=O)c1ccc(C(=O)N(C)C)o1 (stereo not given)
5 nM | 93 nM |  |  |  | CCC(Nc1c(Nc2cccc(C(=O)N(C)C)c2O)c(=O)c1=O)c1cc(Br)co1 (stereo not given)
3.8 nM | 62 nM | 21.5 µM·h |  |  | CC[C@@H](Nc1c(Nc2cccc(C(=O)N(C)C)c2O)c(=O)c1=O)c1cc(Cl)co1
150 nM |  |  | inactive |  | CCC(Nc1c(Nc2cccc(C(=O)N(C)C)c2O)c(=O)c1=O)c1ccc(-c2ccccc2C(F)(F)F)o1 (stereo not given)
3.5 nM | 412 nM |  |  |  | CCC(Nc1c(Nc2cccc(C(=O)N(C)C)c2O)c(=O)c1=O)c1cc2ccccc2o1 (stereo not given)
8.2 nM | 221 nM |  |  |  | CCC(Nc1c(Nc2cccc(C(=O)N(C)C)c2O)c(=O)c1=O)c1cc(-c2ccsc2)co1 (stereo not given)
5 nM | 67 nM |  |  |  | CCC(Nc1c(Nc2cccc(C(=O)N(C)C)c2O)c(=O)c1=O)c1ccco1 (stereo not given)
94 nM |  |  | inactive |  | CCC(Nc1c(Nc2cccc(C(=O)N(C)C)c2O)c(=O)c1=O)c1ccc(CN(C)C)o1 (stereo not given)
3.3 nM | 148 nM |  |  | inactive | CC[C@@H](Nc1c(Nc2cccc(C(=O)N(C)C)c2O)c(=O)c1=O)c1ccccn1
6.8 nM | 568 nM |  |  |  | CCC(Nc1c(Nc2cccc(C(=O)N(C)C)c2O)c(=O)c1=O)c1ccc(C(F)F)o1 (stereo not given)
4.7 nM | 463 nM |  |  |  | CCC(Nc1c(Nc2cccc(C(=O)N(C)C)c2O)c(=O)c1=O)c1ccc(Br)o1 (stereo not given)
